# Assay results from PubChem BioAssay (NCI).
#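 Assay format: 96-well plates, 48-hour exposure. Abbreviation: GI50, concentration required for 50% inhibition of growth. TGI denotes the concentration required for complete inhibition of growth.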
# How the values were obtained:
# Assay in all cases: inhibition of tumour cell growth, NCI panel, 48 h
# NCI-H522 lung = tested on: NCI-H522 lung
# UACC-257 melanoma = tested on: UACC-257 melanoma
# ACHN renal = tested on: ACHN renal
# SF-539 CNS = tested on: SF-539 CNS
# SK-OV-3 ovarian = tested on: SK-OV-3 ovarian
# M14 melanoma = tested on: M14 melanoma
# HOP-92 NSCLC = tested on: HOP-92 NSCLC
# NCI-H226 lung = tested on: NCI-H226 lung
# OVCAR-8 ovarian = tested on: OVCAR-8 ovarian
# COLO 205 colon = tested on: COLO 205 colon
Structure (SMILES),TGI (NCI-H522 lung) [µM],TGI (UACC-257 melanoma) [µM],TGI (ACHN renal) [µM],TGI (SF-539 CNS) [µM],TGI (SK-OV-3 ovarian) [µM],TGI (M14 melanoma) [µM],TGI (HOP-92 NSCLC) [µM],TGI (NCI-H226 lung) [µM],TGI (OVCAR-8 ovarian) [µM],TGI (COLO 205 colon) [µM],GI50 (NCI-H522 lung) [µM],GI50 (UACC-257 melanoma) [µM],GI50 (ACHN renal) [µM],GI50 (SF-539 CNS) [µM],GI50 (SK-OV-3 ovarian) [µM],GI50 (M14 melanoma) [µM],GI50 (HOP-92 NSCLC) [µM],GI50 (NCI-H226 lung) [µM],GI50 (OVCAR-8 ovarian) [µM],GI50 (COLO 205 colon) [µM]
O=C(O)CS(=O)(=O)C(c1ccccc1)c1ccccc1,> 100,> 100,> 100,> 100,> 100,> 100,> 100,> 100,> 100,> 100,,,,,,,,,,
CCN(CC)CCOc1ccc(C(=C(C)c2ccc(Cl)cc2)c2ccc(OCCN(CC)CC)cc2)cc1,1.25,1.17,1.15,1.1,4.11,1.14,2.19,7.32,1.77,1.16,0.591,0.592,0.614,0.59,1.22,0.633,0.536,2.54,0.731,0.581
CC1Oc2cc3c(-c4c(O)cc(O)c5c(O)c6c(cc45)OC(C)C(C)C6=O)c(O)cc(O)c3c(O)c2C(=O)C1C (stereo not given),1.63,1.68,1.57,0.645,1.56,1.12,0.854,0.89,1.4,0.39,,,,,,,,,,
NC(=O)[C@H]1CCN(c2ncnc(N)c2F)C[C@@H]1N1CCC[C@@H](Nc2cc(Cl)cc(C(F)(F)F)c2)C1=O,28.4,59.7,76.3,33.2,56.3,36.8,40.7,70,> 100,34.2,7.11,20.3,7,14.5,6.33,12.8,11.2,18.4,25.6,5.24
COc1cc2c(cc1OC)-c1ccc3cc4c(cc3c1N(CCN1CCCC1)C2)OCO4,1.43,22.2,2.43,2.75,5.51,1.89,12,3.16,2.06,1.56,0.217,9.81,0.514,0.643,0.526,0.574,1.79,0.876,0.404,0.299
CCOC(=O)Cc1c[nH]c(=S)[nH]c1=O,> 100,> 100,> 100,> 100,> 100,> 100,> 100,> 100,> 100,> 100,> 100,> 100,> 100,> 100,> 100,> 100,> 100,> 100,> 100,> 100
Cc1ccc2[nH]c(C(=O)NN3C(=O)CSC34CCCCC4C)c(-c3ccccc3)c2c1 (stereo not given),27.9,31.8,33.3,38.4,47.1,37.7,27.3,34.2,35.6,48.9,13.1,16.8,17.3,19.5,21.4,19.5,12.7,17.5,17.2,20.4
O=C(CCN1CCCC1)Nc1ccc2c(NCc3ccc(F)cc3)c3ccccc3nc2c1,1.75,3.54,1.87,1.63,3.5,2.4,2.07,2.63,2.86,1.65,0.394,1.74,0.483,0.443,0.849,1.07,0.366,0.57,0.517,0.396
C[C@]12CC[C@H]3[C@@H](CCC4=CC(=O)CC[C@@H]43)[C@@H]1CC[C@@H]2OC(=O)N(CCCl)N=O,29,24.8,> 37.7,10.6,30,21.4,17.5,34.1,51.9,20,5.79,10.7,0.359,0.0959,2.77,4.27,0.391,14,5.91,3.1
